Reference: patent US20220313640A1 (Concert Pharmaceuticals, Inc., priority 2019, published 2022)
Where two headings read alike, the source gives them in different places.

Experiments:
[1] = Pharmacokinetics of non-deuterated D-serine in male Sprague-Dawley rats, 300 mg/kg PO; assay type: in vivo; details: rat, mean
Procedure: (§1) The hippocampus, cortex and plasma were collected and analyzed. Additional blood was collected and were analyzed for the full clinical chemistry profile. Urine was also collected and examined for glucose and total protein. […] The mean plasma, hippocampus, and cortex concentration at 1 hour are 19200 ng/mL, 674 ng/g, and 754 ng/g; respectively. The mean plasma, hippocampus, and cortex concentrations at 8 hours were 11250 ng/mL, 17725 ng/g, and 11875 ng/g, respectively. […] Blood urea nitrogen and creatinine levels were elevated.

[2] = Nephrotoxicity of non-deuterated D-serine at 300 mg/kg in male Sprague-Dawley rats (clinical chemistry, urine); assay type: in vivo; details: 300 mg/kg PO
Procedure: as §1

[3] = Pharmacokinetic profile of Compound 100 versus non-deuterated D-serine in male Sprague-Dawley rats, 150 mg/kg PO; assay type: in vivo; details: fasted, plasma, mean
Excerpt: (§2) The pharmacokinetic profile of Compound 100 was investigated in male Sprague-Dawley rats compared with that of non-deuterated D-serine. […] Plasma was collected and analyzed for Compound 100 and non-deuterated D-Serine. Additional blood was collected and analyzed for the full clinical chemistry profile.

[4] = Nephrotoxicity of Compound 100 and non-deuterated D-serine in male Sprague-Dawley rats, 150 mg/kg PO (BUN, creatinine, GGT); assay type: in vivo
Excerpt: as §2

[5] = Nephrotoxicity comparison of Compound 100 and non-deuterated D-serine at doses from 150 mg/kg to 750 mg/kg; assay type: in vivo, rats; details: for changes in BUN or creatinine: doses from 150 mg/kg to 750 mg/kg PO
[6] = Pharmacokinetics dose response of non-deuterated D-serine in male Sprague-Dawley rats, 30-300 mg/kg PO; assay type: in vivo; details: rat, plasma; for Tmax: po
Excerpt: (§3) The pharmacokinetic profile of non-deuterated D-serine was investigated in male Sprague-Dawley rats. […] Plasma was collected and analyzed for the non-deuterated D-serine. Additional blood was collected and analyzed for the full clinical chemistry profile.

[7] = Nephrotoxicity dose response of non-deuterated D-serine in male Sprague-Dawley rats, 30-300 mg/kg PO; assay type: in vivo; details: 24 hr samples at the 150 and 300 mg/kg doses, compared to control and reference values
Excerpt: as §3

[8] = Pharmacokinetics of deuterated and non-deuterated D-serine in male Sprague Dawley rats, PO 10 mg/kg; assay type: in vivo; details: rat, 0.5% Methylcellulose, plasma
Procedure: Three rats were used for each group. Blood was collected at the following time points: for IV dosing: pre-dose, 0.05, 0.167, 0.5, 1, 2, 4, 6, 8 and 12 hours post-dose; for PO dosing: pre-dose, 0.25, 0.5, 1, 2, 4, 6, 8 and 12 hours post-dose PO. Urine was collected at pre-dose (minimum 12 hours), 0-6, 6-12 and 12-24 hours. Plasma samples were analyzed and quantified for dosed compound LC-MS/MS.

[9] = target: T1, human NMDAR subunits GluN1 and GluN2A (Homo sapiens, UniProt Q05586); assay: NMDA receptor activation in automated patch clamp system (ScreenPatch), HEK293 cells; assay type: cell-based; details: 0.003 to 10 μM, Compound 100 versus D-serine
T1 construct: expressed in transfected cells; host or cells: HEK293
Procedure: Peak current and steady state current were measured. The activity at the NMDA receptor was indistinguishable for the two compounds.

[10] = Randomized single dose crossover plasma PK of Compound 100 versus D-serine in healthy volunteers; assay type: in vivo, human; details: for Tmax / AUC(0-inf) / Cmax / half-life: human, plasma; for Tmax / AUC(0-inf) / Cmax / half-life / CL/F: single 0.25 g oral solution, fasted, N = 11; for AUC(0-inf) / Cmax / half-life / CL/F: mean
Procedure: Thirteen healthy volunteers between the ages of 18 to 55 were enrolled in the study. […] Period 1 dosing occurred within 14 days of screening. […] Similarly, in Period 2, the 2 subjects in the sentinel group received the alternate treatment after a 4-day washout and approximately 2 days prior to the remaining subjects receiving their Period 2 dose. […] Water consumption was restricted from 1 hour prior to dosing until 1 hour after dosing. Subjects fasted for approximately 3 hours after dosing and remained upright or semi-supine during this period. A meal was provided 3-4 hours after the dose. Meal times and contents were standardized until the last blood sample was collected for PK assessments. […] Plasma samples were stored in labeled tubes at approximately -80° C.

[11] = Pharmacokinetic profile of Compound 100 in male Sprague-Dawley rats: plasma, hippocampus and cortex concentration after 30 mg/kg PO; assay type: in vivo; details: fasted, 1 hr post dose, mean
Procedure: The mean plasma, hippocampus, and cortex concentrations at 1 hour were 19200 ng/mL, 674 ng/g, and 754 ng/g, respectively. The mean plasma, hippocampus, and cortex concentrations at 6 hours were 1780 ng/mL, 1385 ng/g, and 936 ng/g, respectively.

[12] = Safety and tolerability in single dose crossover study in healthy volunteers; assay type: in vivo, human; details: single 0.25 g oral dose
Excerpt: Thirteen healthy volunteers between the ages of 18 to 55 were enrolled in the study.
Period 1 dosing occurred within 14 days of screening.

[13] = Single Ascending Dose (SAD) study plasma PK in healthy volunteers; assay type: in vivo, human; details: for half-life / AUC(0-inf) / Cmax / Tmax: human, plasma; for Tmax: median
Procedure: (§4) The 0.5, 2, 3, and 4 g doses were evaluated under fasted conditions (after an overnight fast) while the 1 g dose was evaluated under both fasted and fed conditions (within 30 minutes of consumption of a meal) in a crossover design. […] Blood samples for PK analysis were obtained at several time points after dose administration. Safety assessments included monitoring of adverse events and clinical laboratory testing including monitoring of kidney function.

[14] = Multiple Ascending Dose (MAD) study plasma PK, 7 consecutive days; details: for AUC(0-inf) / AUC(0-t) / Cmax / Tmax: human, plasma, po
Excerpt: The caloric content of the meal was in accordance with the FDA guidance for food-effect studies.

[15] = Safety and tolerability in SAD and MAD studies; assay type: in vivo, human
Procedure: as §4, with “function. Neurocognitive effects of CTP-692 using CogScreen® were also explored.” for “function.”

[16] = dose escalation 150 mg/kg to 750 mg/kg
[17] = 150 mg/kg PO, fasted, mean (CV %)
[18] = po, 0.5 g, 0.5 g single oral dose, fasted, arithmetic mean
[19] = po, 1 g, 1 g (fed) single oral dose, arithmetic mean
[20] = po, 1 g, 1 g single oral dose, fasted, arithmetic mean
[21] = po, 2 g, 2 g single oral dose, fasted, arithmetic mean
[22] = po, 3 g, 3 g single oral dose, fasted, arithmetic mean
[23] = po, 4 g, 4 g single oral dose, fasted, arithmetic mean

SMILES: NC(CO)C(=O)O (stereo in doubt) [Non-deuterated D-Serine, D-serine]
- concentration at 8 h ([1]; cortex, endogenous level not subtracted, read-out: Cortex concentration): 11900 ng/g
- Tmax ([1]; fasted, plasma): 0.5 h
- AUC(0-inf) ([1]; fasted, plasma, endogenous level subtracted): 500 µg·h/mL
- concentration at 8 h ([1]; hippocampus, endogenous level not subtracted, read-out: Hippocampus concentration): 17700 ng/g
- concentration at 8 h ([1]; plasma, endogenous level subtracted, read-out: Plasma concentration): 11200 ng/mL
- Blood urea nitrogen level [2]: elevated
- creatinine level [2]: elevated
- glucose in urine [2]: presence of glucose was observed
- AUC(0-inf) ([3]; male, Sprague-Dawley, rat): 349 µg·h/mL
- Cmax ([3]; male, Sprague-Dawley, rat, read-out: Cmax): 180000 ng/mL
- levels of biomarkers of nephrotoxicity [4]: caused an increase
- blood urea nitrogen (BUN) level ([4]; 8 hr and 24 hr serum samples): Elevated levels
- creatinine level ([4]; 24 hr serum samples): Elevated levels
- gamma glutamyl transferase (GGT) level ([4]; 24 hr serum samples): Elevated levels
- gross signs of nephrotoxicity [5, 16]: only observed in rats receiving non-deuterated D-serine
- changes in BUN or creatinine [5]: increasingly elevated levels
- AUC(0-inf) [6, 17]: 349 µg·h/mL
- Cmax [6, 17]: 180000 ng/mL
- Tmax ([6]; 30 mg/kg, 30 mg/kg PO, fasted, mean): 0.5 h
- Tmax ([6]; 75 mg/kg, 75 mg/kg PO, fasted, mean): 0.5 h
- Tmax ([6]; 100 mg/kg, 100 mg/kg PO, fasted, mean): 0.5 h
- Tmax ([6]; 150 mg/kg, 150 mg/kg PO, fasted, mean): 0.3 h
- Tmax ([6]; 300 mg/kg, 300 mg/kg PO, fasted, mean): 0.5 h
- Tmax ([6]; 300 mg/kg, all doses 30, 75, 100, 150, and 300 mg/kg PO): 0.3 to 0.5 h
- creatinine level [7]: Elevated levels
- gamma glutamyl transferase (GGT) level [7]: Elevated levels
- urea nitrogen level [7]: Elevated levels
- Tmax [8]: 0.417 h
- activity at the NMDA receptor (peak current and steady state current) [9]: indistinguishable
- Tmax [10]: 1 h
- AUC(0-inf) [10]: 32.5 µg·h/mL
- Cmax [10]: 4090 ng/mL
- half-life [10]: 17.2 h
- CL/F [10]: 7.9 L/h

SMILES: [2H][C@@](N)(CO)C(=O)O [Compound 100, (2R)-2-amino-2-deutero-3-hydroxy-propanoic acid]
- Cortex concentration [11]: 754 ng/g
- Hippocampus concentration [11]: 674 ng/g
- Plasma concentration [11]: 19200 ng/mL
- AUCinf [3]: 383 µg·h/mL
- Cmax [3]: 186000 ng/mL
- Tmax [3]: 0.667 h
- levels of biomarkers of nephrotoxicity [4]: did not increase
- exposure as measured by AUC and Cmax, compared with non-deuterated D-serine [5, 16]: greater
- gross signs of nephrotoxicity [5, 16]: not Compound 100
- changes in BUN or creatinine [5]: minimal changes
- activity at the NMDA receptor (peak current and steady state current) [9]: indistinguishable
- Tmax [10]: 1.5 h
- AUC(0-inf) [10]: 38.7 µg·h/mL
- Cmax [10]: 4550 ng/mL
- half-life [10]: 18.3 h
- plasma exposure compared to D-serine ([10]; single 0.25 g oral dose): increased plasma exposure
- CL/F [10]: 6.6 L/h
- adverse events related to Compound 100 [12]: mild headache (1 subject) and fatigue (2 subjects)
- serious adverse events [12]: no serious adverse events were reported
- tolerability [12]: generally well tolerated
- CL/F ([13]; 0.5 g single oral dose, fasted, arithmetic mean): 6.17 L/h
- CL/F ([13]; 1 g (fed) single oral dose, arithmetic mean): 5.99 L/h
- CL/F ([13]; 1 g single oral dose, fasted, arithmetic mean): 6.28 L/h
- CL/F ([13]; 2 g single oral dose, fasted, arithmetic mean): 6.56 L/h
- CL/F ([13]; 3 g single oral dose, fasted, arithmetic mean): 6.68 L/h
- CL/F ([13]; 4 g single oral dose, fasted, arithmetic mean): 6.69 L/h
- half-life ([13]; oral, SAD and MAD studies, human plasma, read-out: terminal t1/2 (converted)): ~19 h
- AUC(0-inf) [13, 18]: 82.2 µg·h/mL
- Cmax [13, 18]: 11000 ng/mL
- half-life ([13]; po, 0.5 g, 0.5 g single oral dose, fasted, arithmetic mean, read-out: t1/2 (converted)): 15.9 h
- Tmax ([13]; po, 0.5 g, 0.5 g single oral dose, fasted): 1 h
- AUC(0-inf) [13, 19]: 173 µg·h/mL
- Cmax [13, 19]: 15300 ng/mL
- half-life ([13]; po, 1 g, 1 g (fed) single oral dose, arithmetic mean, read-out: t1/2 (converted)): 17.9 h
- Tmax ([13]; po, 1 g, 1 g (fed) single oral dose): 2 h
- AUC(0-inf) [13, 20]: 164 µg·h/mL
- Cmax [13, 20]: 22300 ng/mL
- half-life ([13]; po, 1 g, 1 g single oral dose, fasted, arithmetic mean, read-out: t1/2 (converted)): 19.2 h
- Tmax ([13]; po, 1 g, 1 g single oral dose, fasted): 1 h
- AUC(0-inf) [13, 21]: 315 µg·h/mL
- Cmax [13, 21]: 46300 ng/mL
- half-life ([13]; po, 2 g, 2 g single oral dose, fasted, arithmetic mean, read-out: t1/2 (converted)): 20.2 h
- Tmax ([13]; po, 2 g, 2 g single oral dose, fasted): 1 h
- AUC(0-inf) [13, 22]: 489 µg·h/mL
- Cmax [13, 22]: 69100 ng/mL
- half-life ([13]; po, 3 g, 3 g single oral dose, fasted, arithmetic mean, read-out: t1/2 (converted)): 20.6 h
- Tmax ([13]; po, 3 g, 3 g single oral dose, fasted): 1 h
- AUC(0-inf) [13, 23]: 618 µg·h/mL
- Cmax [13, 23]: 96500 ng/mL
- half-life ([13]; po, 4 g, 4 g single oral dose, fasted, arithmetic mean, read-out: t1/2 (converted)): 18.4 h
- Tmax ([13]; po, 4 g, 4 g single oral dose, fasted): 1 h
- Accumulation ([14]; following 7 consecutive days of administration): minimal to modest
- dose-exposure relationship ([14]; following single and multiple doses (at Day 7)): linear
- AUC(0-inf) ([14]; 1 g): 263 µg·h/mL
- AUC(0-t) ([14]; 1 g): 175 µg·h/mL
- Cmax ([14]; 1 g): 25300 ng/mL
- Tmax ([14]; 1 g): 1.5 h
- AUC(0-inf) ([14]; 2 g): 522 µg·h/mL
- AUC(0-t) ([14]; 2 g): 333 µg·h/mL
- Cmax ([14]; 2 g): 52000 ng/mL
- Tmax ([14]; 2 g): 1 h
- AUC(0-inf) ([14]; 4 g): 911 µg·h/mL
- AUC(0-t) ([14]; 4 g): 539 µg·h/mL
- Cmax ([14]; 4 g): 70800 ng/mL
- Tmax ([14]; 4 g): 2 h
- effects on kidney function (serum and urine kidney function parameters) ([15]; SAD and MAD studies): no apparent Compound 100-related effects on kidney function
- effects on other clinical laboratory parameters ([15]; SAD and MAD studies): no clinically significant Compound 100-related effects
- most common treatment-related adverse event ([15]; SAD and MAD studies): headache
- neurocognitive effects (CogScreen) ([15]; SAD and MAD studies, exploratory): no evidence of adverse effects on neurocognitive functioning
- tolerability ([15]; SAD and MAD studies, healthy volunteers): well-tolerated
- Compound 100-related adverse events ([15]; highest once-daily dose of 4 g, both studies): no Compound 100-related adverse events were reported
